Legend:
souris ob/ob = test: Hypoglycaemic activity in a non-insulin-dependent diabetes (NIDDM) model, ob/ob mouse; assay type: in vivo; details: ob/ob mice; for Pouvoir hypoglycémiant: at the equi-effective dose of Table 1, 4 days oral, base 100; for Dose provoquant le même effet hypoglycémiant: oral, daily for 4 days, glycaemia at J0 and J5, dose giving the same hypoglycaemic effect (base 100); for minimal effective dose: read-out: DMA (dose minimum active montrant une diminution de la glycémie de 10 à 15 %)
Excerpt: Les animaux (souris ob/ob) sont traités chaque jour, pendant 4 jours, en administrant par voie orale les composés de l'invention en suspension dans une solution à 20 % de gomme du Sénégal. Avant et après traitement, soit à J₀ et à J₅, le sang est prélevé par ponction du sinus orbital et la glycémie est déterminée. Le tableau 1 présente les doses des différents produits à administrer pour obtenir le même effet hypoglycémiant (base 100).
L'étude d'un effet-dose montre que la dose donnant une diminution de la glycémie initiale de 30 % : ED₃₀ pour le composé de l'exemple 2 est inférieure à 0,1 mg/kg alors que celle de la pioglitazone est comprise entre 5 et 10 mg/kg. La dose minimum active : DMA montrant une diminution de la glycémie de 10 à 15 % est de 0,1 mg/kg pour le composé de l'exemple 2 alors qu'elle est de 3 mg/kg pour la pioglitazone.

rats Zucker Fa/Fa mâles = test: Model of decreased glucose tolerance with hyperinsulinaemia and hyperlipaemia, male Zucker Fa/Fa rats; assay type: in vivo; details: 5 mg/kg/day oral for 10 days, blood on day 11, control = 100; for AGL (%): free fatty acids; for TG (%): triglycerides
Procedure: Les animaux (rats Zucker Fa/Fa mâles) sont traités, chaque jour, pendant 10 jours en administrant, par voie orale, les composés de l'invention à la dose de 5 mg/kg/jour en suspension dans une solution à 20 % de gomme du Sénégal. Le 11ème jour, les animaux sont sacrifiés et le sang recueilli afin de déterminer la glycémie, les triglycérides plasmatiques et l'insuline immuno-réactive. D'autre part, les animaux sont pesés avant et après traitement.
Dans ces conditions, les composés de l'invention n'ont pas d'influence sur le taux de glucose circulant mais diminuent le taux de triglycérides et d'acides gras libres plasmatiques ainsi que celui de l'insuline immuno-réactive. Cette activité est égale ou supérieure à celle d'autres dérivés de thiazolidinedione de référence.

[1] = Mus musculus, po, dose-effect study

Structure (SMILES) | Pouvoir hypoglycémiant (souris ob/ob) | Dose provoquant le même effet hypoglycémiant (souris ob/ob) | minimal effective dose (souris ob/ob; [1]) [mg/kg] | Glycémie (%) (rats Zucker Fa/Fa mâles) | Plasma insuline (%) (rats Zucker Fa/Fa mâles) | AGL (%) (rats Zucker Fa/Fa mâles) | TG (%) (rats Zucker Fa/Fa mâles) | ED30 (souris ob/ob; Mus musculus, po, dose-effect study, read-out: ED30 (dose donnant une diminution de la glycémie initiale de 30 %)) [mg/kg]
O=C1NC(=O)C(Cc2ccc3c(c2)CC[C@H](Cc2ccccc2)O3)S1 (stereo partly drawn) [Englitazone] | 100 | 10-20 mg/kg/jour |  |  |  |  |  | 
CCc1ccc(CCOc2ccc(CC3SC(=O)NC3=O)cc2)nc1 (stereo not drawn) [Pioglitazone] | 100 | 10 mg/kg/jour | 3 | 103 | 61 | 52 | 44 | 
CC1(COc2ccc(CC3SC(=O)NC3=O)cc2)CCCCC1 (stereo not drawn) [Ciglitazone] | 100 | 50-100 mg/kg/jour |  |  |  |  |  | 
O=C1NC(=O)C(Cc2ccc3oc(Cc4ccc5ccccc5c4)cc3c2)S1 (racemic) [Exemple 2, 5-[2-(2-Naphtylméthyl)-5-benzofuranylméthyl] thiazolidine-2,4-dione] | 100 | 5-10 mg/kg/jour | 0.1 | 97 | 50 | 48 | 35 | < 0.1
Cc1c(C)c2c(c(C)c1O)CCC(C)(COc1ccc(CC3SC(=O)NC3=O)cc1)O2 (stereo not drawn) [CS 045] | 100 | 150-200 mg/kg/jour |  |  |  |  |  | 
